Activity calls are given as the source filed them. The rule behind the calls is not given here.
Experiments:
[1] = biological target: T1, Programmed cell death protein 1/Programmed cell death 1 ligand 1 (Homo sapiens) (UniProt Q15116+Q9NZQ7); assay: (§1) Inhibition of PD-1/PD-L1 (unknown origin) interaction assessed as inhibition rate at 1 uM by HTRF assay relative to control; type: protein-complex assay
[2] = biological target: T1, Programmed cell death protein 1/Programmed cell death 1 ligand 1 (Homo sapiens); assay: Inhibition of PD-1/PD-L1 (unknown origin) interaction assessed as inhibition rate at 0.1 uM by HTRF assay relative to control; type: protein-complex assay
[3] = biological target: T2, Histone deacetylase 3 (Homo sapiens, UniProt O15379); assay: Inhibition of human recombinant HDAC3 using Ac-Leu-Gly-Lys (Ac)-AMC as substrate at 1 uM preincubated for 10 mins followed by substrate addition and measured after 45 mins by TECAN microtiter plate reader analysis relative to control; settings: time 55.0 min
[4] = biological target: Programmed cell death protein 1/Programmed cell death 1 ligand 1 (Homo sapiens, UniProt Q9NZQ7); assay: as §1; type: protein-complex assay
[5] = biological target: T2, Histone deacetylase 3; assay: Inhibition of human recombinant HDAC3 using Ac-Leu-Gly-Lys (Ac)-AMC as substrate at 0.1 uM preincubated for 10 mins followed by substrate addition and measured after 45 mins by TECAN microtiter plate reader analysis relative to control; settings: time 55.0 min
[6] = biological target: T2, Histone deacetylase 3; assay: Inhibition of human recombinant HDAC3 using Ac-Leu-Gly-Lys (Ac)-AMC as substrate preincubated for 10 mins followed by substrate addition and measured after 45 mins by TECAN microtiter plate reader analysis
[7] = biological target: Histone deacetylase 1 (Homo sapiens, UniProt Q13547); assay: Inhibition of human recombinant HDAC1 using Ac-Leu-Gly-Lys (Ac)-AMC as substrate preincubated for 10 mins followed by substrate addition and measured after 45 mins by TECAN microtiter plate reader analysis
[8] = biological target: T3, Protein deacetylase HDAC6 (Homo sapiens, UniProt Q9UBN7); assay: Inhibition of human recombinant HDAC6 using Ac-Leu-Gly-Lys (Ac)-AMC as substrate preincubated for 10 mins followed by substrate addition and measured after 45 mins by TECAN microtiter plate reader analysis
T3 sequence (Q9UBN7 whole entry): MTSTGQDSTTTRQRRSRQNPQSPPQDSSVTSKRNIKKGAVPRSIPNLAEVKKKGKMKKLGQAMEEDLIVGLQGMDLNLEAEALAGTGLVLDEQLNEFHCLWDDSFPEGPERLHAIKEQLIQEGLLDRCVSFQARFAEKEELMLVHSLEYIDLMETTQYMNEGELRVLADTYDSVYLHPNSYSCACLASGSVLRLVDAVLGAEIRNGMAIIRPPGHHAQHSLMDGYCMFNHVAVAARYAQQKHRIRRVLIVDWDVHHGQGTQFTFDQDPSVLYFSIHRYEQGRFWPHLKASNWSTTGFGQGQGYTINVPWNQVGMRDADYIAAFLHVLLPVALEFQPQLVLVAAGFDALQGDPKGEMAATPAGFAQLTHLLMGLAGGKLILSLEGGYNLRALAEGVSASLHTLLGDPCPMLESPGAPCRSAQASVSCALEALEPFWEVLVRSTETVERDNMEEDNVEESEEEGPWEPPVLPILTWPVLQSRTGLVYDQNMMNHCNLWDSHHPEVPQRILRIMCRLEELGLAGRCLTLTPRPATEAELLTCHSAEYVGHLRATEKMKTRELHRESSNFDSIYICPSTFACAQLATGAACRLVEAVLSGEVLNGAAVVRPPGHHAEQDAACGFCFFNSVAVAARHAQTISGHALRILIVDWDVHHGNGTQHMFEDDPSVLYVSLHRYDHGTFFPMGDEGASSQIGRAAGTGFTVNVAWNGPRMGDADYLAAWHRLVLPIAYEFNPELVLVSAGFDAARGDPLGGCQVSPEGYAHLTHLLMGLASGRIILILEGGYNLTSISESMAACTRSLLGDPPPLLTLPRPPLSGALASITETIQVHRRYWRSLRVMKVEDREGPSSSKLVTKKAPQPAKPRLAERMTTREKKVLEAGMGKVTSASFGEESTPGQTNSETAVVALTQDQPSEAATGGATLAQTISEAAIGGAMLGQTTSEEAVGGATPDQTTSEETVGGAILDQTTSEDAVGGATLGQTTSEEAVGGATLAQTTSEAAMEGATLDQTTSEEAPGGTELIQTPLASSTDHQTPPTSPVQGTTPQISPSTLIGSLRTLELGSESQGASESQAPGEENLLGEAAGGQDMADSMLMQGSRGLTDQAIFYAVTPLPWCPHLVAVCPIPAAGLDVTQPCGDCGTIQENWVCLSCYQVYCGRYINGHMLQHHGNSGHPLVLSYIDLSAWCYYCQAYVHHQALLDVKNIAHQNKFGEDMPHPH

[9] = biological target: T4, Histone deacetylase 8 (Homo sapiens, UniProt Q9BY41); assay: Inhibition of human recombinant HDAC8 using Ac-Leu-Gly-Lys (Tfa)-AMC as substrate preincubated for 10 mins followed by substrate addition and measured after 45 mins by TECAN microtiter plate reader analysis
T4 sequence (Q9BY41 whole entry): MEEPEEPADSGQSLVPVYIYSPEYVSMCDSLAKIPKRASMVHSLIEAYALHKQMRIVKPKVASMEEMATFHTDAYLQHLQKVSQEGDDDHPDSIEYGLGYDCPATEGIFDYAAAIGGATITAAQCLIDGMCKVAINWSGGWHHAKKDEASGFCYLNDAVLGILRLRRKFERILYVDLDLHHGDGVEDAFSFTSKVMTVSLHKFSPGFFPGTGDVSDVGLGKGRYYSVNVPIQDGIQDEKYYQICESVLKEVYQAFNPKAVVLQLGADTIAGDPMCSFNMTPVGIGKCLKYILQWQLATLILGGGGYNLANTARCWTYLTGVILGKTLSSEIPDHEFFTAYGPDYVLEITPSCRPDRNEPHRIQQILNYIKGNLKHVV

[10] = system: B16-F10; assay: Antiproliferative activity against mouse B16-F10 cells assessed as cell growth inhibition incubated for 48 hrs by MTT assay; type: functional, cell-based; settings: B16-F10, 48 h
[11] = system: A-375; assay: Antiproliferative activity against human A-375 cells assessed as cell growth inhibition incubated for 48 hrs by MTT assay; type: functional, cell-based; settings: A-375, 48 h
[12] = system: HepG2; assay: Antiproliferative activity against human HepG2 cells assessed as cell growth inhibition incubated for 48 hrs by MTT assay; type: functional, cell-based; settings: HepG2, 48 h
[13] = system: 4T1; assay: Antiproliferative activity against mouse 4T1 cells assessed as cell growth inhibition incubated for 48 hrs by MTT assay; type: functional, cell-based; settings: 4T1, 48 h
[14] = system: MDA-MB-231; assay: Antiproliferative activity against human MDA-MB-231 cells assessed as cell growth inhibition incubated for 48 hrs by MTT assay; type: functional, cell-based; settings: MDA-MB-231, 48 h
[15] = system: HCT-116; assay: Antiproliferative activity against human HCT-116 cells assessed as cell growth inhibition incubated for 48 hrs by MTT assay; type: functional, cell-based; settings: HCT-116, 48 h
[16] = biological target: T5, Histone deacetylase 3 (Mus musculus) (UniProt O88895); assay: Inhibition of HDAC3 in mouse B16-F10 cells assessed as upregulation of Ac-H3 level at 3 uM incubated for 24 hrs by Western blotting analysis; type: cell-based
T5 sequence (whole entry): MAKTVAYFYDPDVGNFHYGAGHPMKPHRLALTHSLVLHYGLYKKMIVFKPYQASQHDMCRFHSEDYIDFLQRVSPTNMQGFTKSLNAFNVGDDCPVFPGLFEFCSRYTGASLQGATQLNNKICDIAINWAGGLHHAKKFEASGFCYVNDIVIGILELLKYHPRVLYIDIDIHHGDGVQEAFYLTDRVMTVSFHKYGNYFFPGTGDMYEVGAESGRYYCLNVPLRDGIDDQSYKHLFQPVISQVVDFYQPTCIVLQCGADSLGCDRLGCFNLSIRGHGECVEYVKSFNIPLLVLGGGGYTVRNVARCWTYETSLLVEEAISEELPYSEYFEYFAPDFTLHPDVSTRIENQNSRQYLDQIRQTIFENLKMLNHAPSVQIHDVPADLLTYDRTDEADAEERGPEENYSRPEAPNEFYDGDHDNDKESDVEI

Sequence of Programmed cell death protein 1/Programmed cell death 1 ligand 1 (Q15116 whole entry): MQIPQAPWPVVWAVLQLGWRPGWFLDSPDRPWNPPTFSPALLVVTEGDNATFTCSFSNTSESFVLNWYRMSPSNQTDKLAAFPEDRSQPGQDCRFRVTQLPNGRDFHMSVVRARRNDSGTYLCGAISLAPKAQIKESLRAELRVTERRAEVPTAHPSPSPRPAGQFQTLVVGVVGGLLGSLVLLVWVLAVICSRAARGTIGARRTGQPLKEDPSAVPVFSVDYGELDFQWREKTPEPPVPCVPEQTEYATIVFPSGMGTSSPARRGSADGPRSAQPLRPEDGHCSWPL
Sequence of Programmed cell death protein 1/Programmed cell death 1 ligand 1 (Q9NZQ7 whole entry): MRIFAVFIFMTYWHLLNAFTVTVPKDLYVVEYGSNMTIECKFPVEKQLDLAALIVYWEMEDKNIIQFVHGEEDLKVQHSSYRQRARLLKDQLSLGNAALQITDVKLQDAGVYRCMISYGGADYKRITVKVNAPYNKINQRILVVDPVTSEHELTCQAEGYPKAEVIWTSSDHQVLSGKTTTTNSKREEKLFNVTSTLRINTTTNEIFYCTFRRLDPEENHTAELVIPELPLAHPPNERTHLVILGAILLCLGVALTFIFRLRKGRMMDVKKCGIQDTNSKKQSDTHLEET
Sequence of Histone deacetylase 1 (Q13547 whole entry): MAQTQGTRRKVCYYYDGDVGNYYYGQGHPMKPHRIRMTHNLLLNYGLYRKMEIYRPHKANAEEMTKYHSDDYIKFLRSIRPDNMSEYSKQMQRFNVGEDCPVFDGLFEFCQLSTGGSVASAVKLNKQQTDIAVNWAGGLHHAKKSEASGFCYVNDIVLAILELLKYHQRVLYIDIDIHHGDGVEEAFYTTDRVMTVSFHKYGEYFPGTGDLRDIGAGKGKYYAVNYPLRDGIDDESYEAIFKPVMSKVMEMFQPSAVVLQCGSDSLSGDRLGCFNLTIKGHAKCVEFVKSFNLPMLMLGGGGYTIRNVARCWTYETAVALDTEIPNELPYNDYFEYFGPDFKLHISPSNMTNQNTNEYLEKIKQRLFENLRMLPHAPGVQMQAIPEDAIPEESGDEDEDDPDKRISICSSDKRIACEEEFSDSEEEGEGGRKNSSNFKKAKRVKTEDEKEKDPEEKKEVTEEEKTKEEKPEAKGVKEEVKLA
T2 sequence (O15379 whole entry): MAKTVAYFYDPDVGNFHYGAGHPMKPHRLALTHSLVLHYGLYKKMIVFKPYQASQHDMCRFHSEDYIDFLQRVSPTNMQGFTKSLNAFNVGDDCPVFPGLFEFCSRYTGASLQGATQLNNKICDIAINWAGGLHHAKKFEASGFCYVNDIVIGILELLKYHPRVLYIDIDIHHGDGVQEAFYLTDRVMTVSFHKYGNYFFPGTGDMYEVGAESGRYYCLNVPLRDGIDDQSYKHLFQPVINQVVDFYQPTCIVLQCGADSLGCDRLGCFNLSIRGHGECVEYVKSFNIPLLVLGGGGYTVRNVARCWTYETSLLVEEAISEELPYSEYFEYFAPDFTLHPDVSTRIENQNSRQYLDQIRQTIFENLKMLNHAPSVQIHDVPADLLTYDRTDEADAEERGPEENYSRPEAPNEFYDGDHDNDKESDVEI

Row | Compound | inhibition [3] | inhibition [5] | inhibition [1] | inhibition [2] | further results
1 | CCCNNC(=O)c1cnc(N2CC(NCc3ccc(-c4cccc(-c5ccccc5)c4C)nc3OC)C2)cn1 |  |  | 54.5% | 13.5% | 
2 | CCCNNC(=O)c1cnc(N2CCC(NCc3ccc(-c4cccc(-c5ccccc5)c4C)nc3OC)CC2)cn1 |  |  | 62.6% | 7.82% | 
3 | CCCNNC(=O)CNCc1ccc(-c2cccc(-c3ccccc3)c2C)nc1OC |  |  | 68.9% | 19.5% | 
4 | CCCNNC(=O)c1cnc(N(C)CCN(C)Cc2ccc(-c3cccc(-c4ccccc4)c3C)nc2OC)nc1 |  |  | 28.8% | 5.96% | 
5 | CCCNNC(=O)c1ccc(NCc2ccc(-c3cccc(-c4ccccc4)c3C)nc2OC)cc1 |  |  | 7.61% | 1.83% | 
6 | CCCNNC(=O)CCCCCCNCc1ccc(-c2cccc(-c3ccccc3)c2C)nc1OC | 55.8% |  | 89.8% | 12.5% | 
7 | CCCNNC(=O)CC1CCN(Cc2ccc(-c3cccc(-c4ccccc4)c3C)nc2OC)CC1 | < 50% |  | 89.4% | 25.7% | 
8 | CCCNNC(=O)c1ccc(NCc2ccc(-c3cccc(-c4ccccc4)c3C)nc2OC)c(C)c1 |  |  | 4.65% | -0.25% | 
9 | CCCNNC(=O)c1cnc(N2CC(NCc3ccc(-c4cccc(-c5ccccc5)c4C)nc3OC)C2)nc1 |  |  | 68.2% | 17.8% | 
10 | CCCNNC(=O)c1ccc(NCCNCc2ccc(-c3cccc(-c4ccccc4)c3C)nc2OC)cc1 |  |  | 11.1% | 4.12% | 
11 | CCCNNC(=O)CC1CCCN(Cc2ccc(-c3cccc(-c4ccccc4)c3C)nc2OC)C1 (stereo not given) |  |  | 59.1% | 4.75% | 
12 | CCCNNC(=O)c1ccc(CNCc2ccc(-c3cccc(-c4ccccc4)c3C)nc2OC)cc1 |  |  | 42.4% | 11.3% | 

Further lines, with some results ahead:

Row | inhibition [3] | inhibition [5] | Compound | inhibition [1] | inhibition [2] | further results
13 | < 50% |  | CCCNNC(=O)c1cnc(NCCCNCc2ccc(-c3cccc(-c4ccccc4)c3C)nc2OC)cn1 | 80.9% | 18.8% | 
14 | < 50% |  | CCCNNC(=O)c1cnc(NCCNCc2ccc(-c3cccc(-c4ccccc4)c3C)nc2OC)nc1 | 95.1% | 44.5% | 
15 | 82% | 53.6% | CCCNNC(=O)CCCCCNCc1ccc(-c2cccc(-c3ccccc3)c2C)nc1OC | 92.7% | 37.3% | IC50 [4]: 213 nM; IC50 [6]: 106 nM; IC50 [7]: 535 nM; IC50 [8]: > 10 µM; IC50 [9]: > 10 µM
16 | 71.3% | 33.2% | CCCNNC(=O)C1CCN(Cc2ccc(-c3cccc(-c4ccccc4)c3C)nc2OC)CC1 | 82.7% | 21.7% | 
17 | 67.2% | 36% | CCCNNC(=O)CCNCc1ccc(-c2cccc(-c3ccccc3)c2C)nc1OC | 92.4% | 58.8% | 
18 | 74.3% | 46.8% | CCCNNC(=O)c1ccc(C(=O)NCCNCc2ccc(-c3cccc(-c4ccccc4)c3C)nc2OC)cc1 | 88.1% | 23.4% | 
19 | 69.5% | 38.5% | CCCNNC(=O)c1ccc(NCCNCc2ccc(-c3cccc(-c4ccccc4)c3C)nc2OC)nn1 | 78.5% | 9.3% | 
20 | < 50% |  | CCCNNC(=O)c1cnc(N2CCC(NCc3ccc(-c4cccc(-c5ccccc5)c4C)nc3OC)CC2)nc1 | 71.7% | 3.6% | 
21 | 79.4% | 41.9% | CCCNNC(=O)CCCCNCc1ccc(-c2cccc(-c3ccccc3)c2C)nc1OC | 92.5% | 54.4% | IC50 [4]: 71.6 nM; IC50 [6]: 111 nM; IC50 [7]: 459 nM; IC50 [8]: > 10 µM; IC50 [9]: > 10 µM
22 | 79.7% | 40.2% | CCCNNC(=O)c1cnc(NCCNCc2ccc(-c3cccc(-c4ccccc4)c3C)nc2OC)cn1 | 94.4% | 46% | IC50 [4]: 64.9 nM; IC50 [6]: 168 nM; IC50 [7]: 2150 nM; IC50 [8]: > 10 µM; IC50 [9]: > 10 µM; IC50 [10]: 6.93 µM; IC50 [11]: 10.2 µM; IC50 [12]: 7.01 µM; IC50 [13]: 7.48 µM; IC50 [14]: 13.9 µM; IC50 [15]: 14.7 µM; inhibition [16]: Active
